Source: PubChem BioAssay (NCI)
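1) Cells in 96-well plates. 2) Compound, 48 h, 5 concentrations. 3) Linear interpolation between surrounding doses. 4) Unreached endpoint = highest concentration. At the TGI there is no net growth.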

What was measured:
Test in all cases: NCI-60 cell line screen, 48 h
[1] = tested on: 786-0 renal
[2] = tested on: A498 renal
[3] = tested on: A549 NSCLC
[4] = tested on: ACHN renal
[5] = tested on: BT-549 breast
[6] = tested on: CAKI-1 renal
[7] = tested on: CCRF-CEM leukemia
[8] = tested on: COLO 205 colon
[9] = tested on: DLD-1 colon
[10] = tested on: DMS 114 small cell lung
[11] = tested on: DMS 273 small cell lung
[12] = tested on: DU-145 prostate
[13] = tested on: EKVX NSCLC
[14] = tested on: HCC-2998 colon
[15] = tested on: HCT-116 colon
[16] = tested on: HCT-15 colon
[17] = tested on: HL-60(TB) leukemia
[18] = tested on: HOP-18 NSCLC
[19] = tested on: HOP-62 NSCLC
[20] = tested on: HOP-92 NSCLC
[21] = tested on: HS 578T breast
[22] = tested on: HT29 colon
[23] = tested on: IGROV1 ovarian
[24] = tested on: K-562 leukemia
[25] = tested on: KM12 colon
[26] = tested on: KM20L2 colon
[27] = tested on: LOX IMVI melanoma
[28] = tested on: LXFL 529 NSCLC
[29] = tested on: M14 melanoma
[30] = tested on: M19-MEL melanoma
[31] = tested on: MALME-3M melanoma
[32] = tested on: MCF7 breast
[33] = tested on: MDA-MB-231 breast
[34] = tested on: MDA-MB-435
[35] = tested on: MDA-N
[36] = tested on: MOLT-4 leukemia
[37] = tested on: NCI-H226 lung
[38] = tested on: NCI-H23 lung
[39] = tested on: NCI-H460 lung
[40] = tested on: NCI-H522 lung
[41] = tested on: NCI/ADR-RES ovarian
[42] = tested on: OVCAR-3 ovarian
[43] = tested on: OVCAR-4 ovarian
[44] = tested on: OVCAR-5 ovarian
[45] = tested on: OVCAR-8 ovarian
[46] = tested on: PC-3 prostate
[47] = tested on: RPMI-8226 leukemia
[48] = tested on: RXF 393 renal
[49] = tested on: RXF-631 renal
[50] = tested on: SF-268 CNS
[51] = tested on: SF-295 CNS
[52] = tested on: SF-539 CNS
[53] = tested on: SK-MEL-2 melanoma
[54] = tested on: SK-MEL-28 melanoma
[55] = tested on: SK-MEL-5 melanoma
[56] = tested on: SK-OV-3 ovarian
[57] = tested on: SN12C renal
[58] = tested on: SNB-19 CNS
[59] = tested on: SNB-75 CNS
[60] = tested on: SNB-78 CNS
[61] = tested on: SR leukemia
[62] = tested on: SW-620 colon
[63] = tested on: T-47D breast
[64] = tested on: TK-10 renal
[65] = tested on: U251 CNS
[66] = tested on: UACC-257 melanoma
[67] = tested on: UACC-62 melanoma
[68] = tested on: UO-31 renal
[69] = tested on: XF 498 CNS

With CCOC(=O)CN1C(=O)c2cc([N+](=O)[O-])cc3cc([N+](=O)[O-])cc(c23)C1=O the TGI [1] was greater than 100 µM, the TGI [2] was greater than 100 µM and the TGI [3] was greater than 100 µM. The TGI [4] was greater than 100 µM, the TGI [5] was greater than 100 µM and the TGI [6] was greater than 100 µM. It also gave a TGI [7] of 23.2 µM, a TGI [8] greater than 100 µM and a TGI [9] greater than 100 µM. The TGI [10] was greater than 100 µM, the TGI [11] was greater than 100 µM and the TGI [12] was greater than 100 µM. For the same compound, the TGI [13] was greater than 100 µM, the TGI [14] was greater than 100 µM and the TGI [15] was greater than 100 µM. It also gave a TGI [16] greater than 100 µM, a TGI [17] of 8.99 µM and a TGI [18] greater than 100 µM. The TGI [19] was greater than 100 µM, the TGI [20] was greater than 100 µM and the TGI [21] was greater than 100 µM. For the same compound, the TGI [22] was greater than 100 µM, the TGI [23] was greater than 100 µM and the TGI [24] was greater than 100 µM. It also gave a TGI [25] greater than 100 µM, a TGI [26] greater than 100 µM and a TGI [27] greater than 100 µM. The TGI [28] was greater than 100 µM, the TGI [29] was greater than 100 µM and the TGI [30] was greater than 100 µM. The TGI [31] was greater than 100 µM, the TGI [32] was greater than 100 µM and the TGI [33] was greater than 100 µM. It also gave a TGI [34] greater than 100 µM, a TGI [35] greater than 100 µM and a TGI [36] greater than 64.9 µM. It also gave a TGI [37] greater than 100 µM, a TGI [38] greater than 100 µM and a TGI [39] greater than 100 µM. It also gave a TGI [40] of 46.3 µM, a TGI [41] greater than 100 µM and a TGI [42] greater than 100 µM. The TGI [43] was greater than 100 µM, the TGI [44] was greater than 100 µM and the TGI [45] was greater than 100 µM. For the same compound, the TGI [46] was greater than 100 µM, the TGI [47] was greater than 100 µM and the TGI [48] was 83 µM. It also gave a TGI [49] greater than 100 µM, a TGI [50] greater than 94.6 µM and a TGI [51] greater than 100 µM. It also gave a TGI [52] of 84.3 µM, a TGI [53] greater than 62.3 µM and a TGI [54] greater than 100 µM. For the same compound, the TGI [55] was greater than 100 µM, the TGI [56] was greater than 100 µM and the TGI [57] was greater than 100 µM. For the same compound, the TGI [58] was greater than 100 µM, the TGI [59] was greater than 100 µM and the TGI [60] was greater than 97.1 µM. The TGI [61] was 30.7 µM, the TGI [62] was greater than 100 µM and the TGI [63] was greater than 100 µM. For the same compound, the TGI [64] was greater than 100 µM, the TGI [65] was greater than 100 µM and the TGI [66] was greater than 100 µM. It also gave a TGI [67] greater than 100 µM, a TGI [68] greater than 100 µM and a TGI [69] greater than 100 µM.

Work on CC(=O)Oc1ccc2c(c1)C(=O)c1nc(C)c(C)nc1C2=O yielded a TGI [1] greater than 96.5 µM, a TGI [2] greater than 91.7 µM and a TGI [3] greater than 100 µM. The TGI [4] was greater than 100 µM, the TGI [6] was greater than 100 µM and the TGI [7] was greater than 100 µM. It also gave a TGI [8] greater than 100 µM, a TGI [9] greater than 100 µM and a TGI [10] greater than 76.4 µM. It also gave a TGI [11] greater than 100 µM, a TGI [13] greater than 78.6 µM and a TGI [14] greater than 100 µM. For the same compound, the TGI [15] was greater than 100 µM, the TGI [16] was greater than 100 µM and the TGI [17] was 56.4 µM. The TGI [18] was greater than 100 µM, the TGI [19] was greater than 100 µM and the TGI [20] was greater than 100 µM. It also gave a TGI [22] greater than 91.7 µM, a TGI [23] greater than 100 µM and a TGI [24] greater than 100 µM. It also gave a TGI [25] greater than 100 µM, a TGI [26] greater than 100 µM and a TGI [27] greater than 100 µM. It also gave a TGI [28] greater than 100 µM, a TGI [29] greater than 100 µM and a TGI [30] of 9.42 µM. For the same compound, the TGI [31] was 38 µM, the TGI [36] was greater than 100 µM and the TGI [37] was greater than 100 µM. It also gave a TGI [38] greater than 100 µM, a TGI [39] greater than 90.1 µM and a TGI [40] of 89.6 µM. The TGI [42] was 59.1 µM, the TGI [43] was greater than 89 µM and the TGI [44] was greater than 100 µM. It also gave a TGI [45] greater than 100 µM, a TGI [47] greater than 100 µM and a TGI [48] of 96.4 µM. For the same compound, the TGI [49] was greater than 91.9 µM, the TGI [50] was greater than 100 µM and the TGI [51] was greater than 100 µM. For the same compound, the TGI [52] was 55.4 µM, the TGI [53] was greater than 86.3 µM and the TGI [54] was greater than 100 µM. For the same compound, the TGI [55] was 30.1 µM, the TGI [56] was greater than 100 µM and the TGI [57] was greater than 100 µM. It also gave a TGI [58] greater than 93.8 µM, a TGI [59] greater than 100 µM and a TGI [60] greater than 100 µM. The TGI [61] was greater than 89 µM, the TGI [62] was greater than 100 µM and the TGI [64] was greater than 100 µM. The TGI [65] was greater than 100 µM, the TGI [66] was greater than 66.4 µM and the TGI [67] was 38.8 µM. The TGI [68] was greater than 100 µM and the TGI [69] was greater than 100 µM.

With N#Cc1cccc(N2C(=O)C3C4C=CC(C3C2=O)C2C(=O)N(c3cccc(C#N)c3)C(=O)C42)c1 (stereo unspecified) the TGI [1] was greater than 63.1 µM, the TGI [2] was 42 µM and the TGI [3] was greater than 63.1 µM. It also gave a TGI [4] of 55.2 µM, a TGI [5] of 72.1 µM and a TGI [6] greater than 87 µM. It also gave a TGI [7] of 53.7 µM, a TGI [8] greater than 63.1 µM and a TGI [9] greater than 46.4 µM. For the same compound, the TGI [10] was 42 µM, the TGI [11] was greater than 31.6 µM and the TGI [12] was greater than 100 µM. For the same compound, the TGI [13] was greater than 100 µM, the TGI [14] was greater than 56.2 µM and the TGI [15] was 31.6 µM. The TGI [16] was greater than 63.1 µM, the TGI [17] was greater than 100 µM and the TGI [18] was greater than 100 µM. For the same compound, the TGI [19] was 38.1 µM, the TGI [20] was 31.6 µM and the TGI [21] was greater than 95.5 µM. For the same compound, the TGI [22] was greater than 63.1 µM, the TGI [23] was 49.2 µM and the TGI [24] was 55.8 µM. The TGI [25] was greater than 56.2 µM, the TGI [26] was greater than 100 µM and the TGI [27] was greater than 63.1 µM. It also gave a TGI [28] greater than 46.4 µM, a TGI [29] greater than 63.1 µM and a TGI [31] of 99.4 µM. For the same compound, the TGI [32] was greater than 100 µM, the TGI [33] was greater than 100 µM and the TGI [34] was greater than 100 µM. The TGI [35] was greater than 100 µM, the TGI [36] was 50.2 µM and the TGI [37] was greater than 63.1 µM. The TGI [38] was 52.5 µM, the TGI [39] was greater than 63.1 µM and the TGI [40] was 38.2 µM. It also gave a TGI [41] greater than 100 µM, a TGI [42] greater than 100 µM and a TGI [43] greater than 63.1 µM. It also gave a TGI [44] greater than 63.1 µM, a TGI [45] greater than 63.1 µM and a TGI [46] greater than 100 µM. It also gave a TGI [47] greater than 56.2 µM, a TGI [48] of 22.9 µM and a TGI [49] of 42.9 µM. It also gave a TGI [50] of 49.7 µM, a TGI [51] of 36.7 µM and a TGI [52] of 61.4 µM. It also gave a TGI [53] of 34.7 µM, a TGI [54] greater than 63.1 µM and a TGI [55] greater than 63.1 µM. The TGI [56] was 34.9 µM, the TGI [57] was greater than 39.8 µM and the TGI [58] was greater than 80.1 µM. For the same compound, the TGI [59] was 17.6 µM, the TGI [60] was 33.7 µM and the TGI [61] was 49.5 µM. The TGI [62] was greater than 100 µM, the TGI [63] was greater than 31.6 µM and the TGI [64] was 50 µM. It also gave a TGI [65] of 26.8 µM, a TGI [66] greater than 63.1 µM and a TGI [67] greater than 100 µM. The TGI [68] was 61.8 µM and the TGI [69] was 36.2 µM.
